Results published in ChEMBL document CHEMBL5465560, “Selectivity Literature for EUbOPEN Chemogenomic Library” (2024).
Values belong to the compound of their own block, whether it stands above or below them.

Experiments:
[1] = molecular target: T1, Dual specificity mitogen-activated protein kinase kinase 7 (Homo sapiens) (UniProt O14733); assay: Selectivity interaction (KinomeScan (DiscoverX)) EUB0001049a MAP2K7; conditions: at 1 µM
T1 sequence (whole entry): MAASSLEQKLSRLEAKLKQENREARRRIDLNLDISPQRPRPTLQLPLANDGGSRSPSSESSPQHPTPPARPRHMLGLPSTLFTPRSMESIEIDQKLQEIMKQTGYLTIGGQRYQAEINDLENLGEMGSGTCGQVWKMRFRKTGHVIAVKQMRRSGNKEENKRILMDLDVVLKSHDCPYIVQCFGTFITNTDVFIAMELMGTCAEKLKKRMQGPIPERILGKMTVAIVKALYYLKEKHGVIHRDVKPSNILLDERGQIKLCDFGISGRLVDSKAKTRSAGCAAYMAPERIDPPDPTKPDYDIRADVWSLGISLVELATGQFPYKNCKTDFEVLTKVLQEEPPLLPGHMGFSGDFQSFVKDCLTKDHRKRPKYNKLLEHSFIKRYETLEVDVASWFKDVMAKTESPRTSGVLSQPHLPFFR

[2] = molecular target: Mast/stem cell growth factor receptor Kit (Homo sapiens, UniProt P10721); assay: Selectivity interaction (Ambit KINOMEscan and KiNATiv profiling in Jurkat cells) EUB0000090b KIT; format: cell-based; conditions: at 1 µM
[3] = molecular target: T2, Mitogen-activated protein kinase kinase kinase 7 (Homo sapiens) (UniProt O43318); assay: Selectivity interaction (Kinase panel (Invitrogen)) EUB0000639a MAP3K7; conditions: at 200 nM
T2 sequence (whole entry): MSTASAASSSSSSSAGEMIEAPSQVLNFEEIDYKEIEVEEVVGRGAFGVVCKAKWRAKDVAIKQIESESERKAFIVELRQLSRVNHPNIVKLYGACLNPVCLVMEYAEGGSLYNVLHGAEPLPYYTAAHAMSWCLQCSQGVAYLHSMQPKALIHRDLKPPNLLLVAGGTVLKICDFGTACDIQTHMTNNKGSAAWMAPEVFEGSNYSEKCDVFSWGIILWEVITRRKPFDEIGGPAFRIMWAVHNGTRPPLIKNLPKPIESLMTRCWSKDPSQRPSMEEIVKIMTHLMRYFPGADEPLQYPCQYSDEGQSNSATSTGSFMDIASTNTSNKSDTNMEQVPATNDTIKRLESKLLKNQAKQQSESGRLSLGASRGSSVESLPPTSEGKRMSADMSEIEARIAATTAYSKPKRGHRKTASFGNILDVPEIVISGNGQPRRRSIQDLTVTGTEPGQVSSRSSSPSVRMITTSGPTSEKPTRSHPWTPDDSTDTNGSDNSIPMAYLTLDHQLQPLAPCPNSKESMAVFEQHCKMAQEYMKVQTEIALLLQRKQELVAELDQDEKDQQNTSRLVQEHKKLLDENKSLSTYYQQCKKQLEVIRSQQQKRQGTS

CDK2/Cyclin A2 = CDK2/Cyclin A2 (Homo sapiens, UniProt P24941); assay: (§1) Selectivity interaction (Enzymatic assay (Reaction Biology)) EUB0001632a CDK2; format: protein-complex assay
[4] = molecular target: Cyclin-dependent kinase 2/cyclin E (Homo sapiens, UniProt P24941); assay: as §1; format: protein-complex assay
[5] = molecular target: Mitogen-activated protein kinase kinase kinase kinase 5 (Homo sapiens) (UniProt Q9Y4K4); assay: Selectivity interaction (KinomeScan (DiscoverX)) EUB0000229b MAP4K5; conditions: at 10 µM
[6] = molecular target: T3, Serine/threonine-protein kinase Nek1 (Homo sapiens) (UniProt Q96PY6); assay: Selectivity interaction (ProQinase) EUB0000171b NEK1
T3 sequence (whole entry): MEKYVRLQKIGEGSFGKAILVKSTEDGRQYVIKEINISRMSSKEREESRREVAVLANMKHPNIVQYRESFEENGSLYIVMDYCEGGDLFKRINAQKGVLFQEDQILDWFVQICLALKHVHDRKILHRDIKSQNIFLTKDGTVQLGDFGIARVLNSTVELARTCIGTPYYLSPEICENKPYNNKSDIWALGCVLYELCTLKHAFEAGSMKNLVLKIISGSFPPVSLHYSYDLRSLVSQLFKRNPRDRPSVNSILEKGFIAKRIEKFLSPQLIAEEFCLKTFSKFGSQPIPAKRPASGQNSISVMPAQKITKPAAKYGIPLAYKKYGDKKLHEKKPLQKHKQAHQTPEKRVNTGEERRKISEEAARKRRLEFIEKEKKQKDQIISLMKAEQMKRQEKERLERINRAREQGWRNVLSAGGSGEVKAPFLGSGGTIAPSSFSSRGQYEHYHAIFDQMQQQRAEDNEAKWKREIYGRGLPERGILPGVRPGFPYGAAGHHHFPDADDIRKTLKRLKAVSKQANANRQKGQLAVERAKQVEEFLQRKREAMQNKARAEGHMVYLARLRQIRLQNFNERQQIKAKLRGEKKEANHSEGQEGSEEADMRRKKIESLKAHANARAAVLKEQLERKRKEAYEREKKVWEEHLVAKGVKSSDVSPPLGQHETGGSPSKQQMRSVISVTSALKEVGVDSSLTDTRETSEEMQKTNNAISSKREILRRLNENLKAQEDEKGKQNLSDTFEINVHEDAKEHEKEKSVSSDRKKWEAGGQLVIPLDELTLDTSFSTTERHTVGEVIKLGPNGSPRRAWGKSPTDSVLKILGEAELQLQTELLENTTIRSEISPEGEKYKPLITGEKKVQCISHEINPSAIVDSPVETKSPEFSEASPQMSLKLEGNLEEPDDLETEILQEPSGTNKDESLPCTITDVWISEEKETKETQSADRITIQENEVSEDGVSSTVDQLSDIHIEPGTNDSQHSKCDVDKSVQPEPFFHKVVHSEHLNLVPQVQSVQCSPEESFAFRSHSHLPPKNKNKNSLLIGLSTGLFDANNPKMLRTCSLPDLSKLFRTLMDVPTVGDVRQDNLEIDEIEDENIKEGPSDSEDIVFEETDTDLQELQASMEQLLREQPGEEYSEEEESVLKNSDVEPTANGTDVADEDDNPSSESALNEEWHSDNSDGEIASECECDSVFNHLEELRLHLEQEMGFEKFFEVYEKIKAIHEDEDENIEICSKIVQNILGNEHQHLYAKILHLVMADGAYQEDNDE

[7] = molecular target: Tyrosine-protein kinase receptor Tie-1 (Homo sapiens) (UniProt P35590); assay: Selectivity interaction (KinomeScan (DiscoverX)) EUB0000607a TIE1; conditions: at 10 µM
Aurora kinase B = Aurora kinase B (Homo sapiens, UniProt Q96GD4); assay: Selectivity interaction (Panel of kinases, GPCRs, ion channels and transporters (enzymatic assay)) EUB0000223bCl AURKB
Aurora kinase B, sequence (Q96GD4 whole entry): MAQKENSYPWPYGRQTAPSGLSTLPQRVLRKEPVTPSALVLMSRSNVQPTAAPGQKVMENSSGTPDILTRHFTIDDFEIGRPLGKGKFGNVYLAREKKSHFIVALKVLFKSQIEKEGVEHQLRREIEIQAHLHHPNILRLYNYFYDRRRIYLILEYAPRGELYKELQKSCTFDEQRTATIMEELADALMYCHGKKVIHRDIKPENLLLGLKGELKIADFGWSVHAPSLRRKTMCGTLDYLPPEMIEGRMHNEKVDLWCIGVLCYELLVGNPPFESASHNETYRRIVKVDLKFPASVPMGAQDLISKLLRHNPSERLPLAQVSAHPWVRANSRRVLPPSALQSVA

Mitogen-activated protein kinase kinase kinase kinase 5 (Homo sapiens), sequence (Q9Y4K4 whole entry, looked up): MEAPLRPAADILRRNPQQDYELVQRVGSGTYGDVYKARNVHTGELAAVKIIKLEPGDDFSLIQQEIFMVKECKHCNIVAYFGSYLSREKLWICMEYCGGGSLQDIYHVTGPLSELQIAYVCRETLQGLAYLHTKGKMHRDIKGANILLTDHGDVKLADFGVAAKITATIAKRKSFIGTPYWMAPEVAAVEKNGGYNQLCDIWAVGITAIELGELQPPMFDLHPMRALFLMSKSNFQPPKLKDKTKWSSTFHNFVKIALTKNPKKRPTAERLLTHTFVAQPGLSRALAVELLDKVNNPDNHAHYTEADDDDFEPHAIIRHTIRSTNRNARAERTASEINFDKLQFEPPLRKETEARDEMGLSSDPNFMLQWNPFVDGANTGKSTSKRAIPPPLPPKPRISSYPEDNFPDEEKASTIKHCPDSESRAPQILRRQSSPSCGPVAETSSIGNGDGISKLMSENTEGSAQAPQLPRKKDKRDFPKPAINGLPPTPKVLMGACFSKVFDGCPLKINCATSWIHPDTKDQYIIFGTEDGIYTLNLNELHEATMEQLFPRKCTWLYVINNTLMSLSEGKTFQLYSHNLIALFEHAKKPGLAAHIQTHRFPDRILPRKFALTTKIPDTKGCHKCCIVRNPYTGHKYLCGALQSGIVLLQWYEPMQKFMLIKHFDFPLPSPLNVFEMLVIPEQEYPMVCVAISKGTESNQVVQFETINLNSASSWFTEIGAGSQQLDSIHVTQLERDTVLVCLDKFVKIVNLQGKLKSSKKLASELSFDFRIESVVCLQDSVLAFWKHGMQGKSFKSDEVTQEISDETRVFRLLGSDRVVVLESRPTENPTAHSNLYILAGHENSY
Tyrosine-protein kinase receptor Tie-1 (Homo sapiens), sequence (P35590 whole entry): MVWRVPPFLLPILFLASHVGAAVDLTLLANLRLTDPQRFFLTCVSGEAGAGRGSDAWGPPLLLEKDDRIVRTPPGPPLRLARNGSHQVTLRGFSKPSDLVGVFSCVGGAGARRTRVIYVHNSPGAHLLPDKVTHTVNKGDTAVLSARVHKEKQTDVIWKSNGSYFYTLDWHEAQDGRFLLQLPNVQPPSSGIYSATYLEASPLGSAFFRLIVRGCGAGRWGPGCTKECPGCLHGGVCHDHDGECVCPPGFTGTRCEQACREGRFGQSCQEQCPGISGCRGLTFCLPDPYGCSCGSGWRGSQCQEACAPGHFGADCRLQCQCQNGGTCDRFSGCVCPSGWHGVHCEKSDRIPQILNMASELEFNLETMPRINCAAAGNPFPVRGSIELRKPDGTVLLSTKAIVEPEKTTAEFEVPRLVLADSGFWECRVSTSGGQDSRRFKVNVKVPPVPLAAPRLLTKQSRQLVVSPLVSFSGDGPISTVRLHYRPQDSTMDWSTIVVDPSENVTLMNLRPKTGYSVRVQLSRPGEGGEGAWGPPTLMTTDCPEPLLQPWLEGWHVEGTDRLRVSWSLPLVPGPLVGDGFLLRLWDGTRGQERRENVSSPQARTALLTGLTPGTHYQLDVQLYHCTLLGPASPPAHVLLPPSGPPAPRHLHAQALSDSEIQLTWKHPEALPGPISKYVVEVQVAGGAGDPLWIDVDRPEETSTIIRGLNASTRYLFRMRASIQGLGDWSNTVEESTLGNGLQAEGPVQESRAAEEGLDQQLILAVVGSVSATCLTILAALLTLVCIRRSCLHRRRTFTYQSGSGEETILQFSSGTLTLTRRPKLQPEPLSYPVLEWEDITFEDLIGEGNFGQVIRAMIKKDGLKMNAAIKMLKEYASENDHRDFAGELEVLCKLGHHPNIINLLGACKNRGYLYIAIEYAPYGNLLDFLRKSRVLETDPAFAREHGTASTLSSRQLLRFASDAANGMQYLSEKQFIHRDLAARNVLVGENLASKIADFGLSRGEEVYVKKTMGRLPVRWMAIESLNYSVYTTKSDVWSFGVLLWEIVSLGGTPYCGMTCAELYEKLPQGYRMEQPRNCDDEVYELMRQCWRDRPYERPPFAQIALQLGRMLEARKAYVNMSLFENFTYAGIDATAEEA
Mast/stem cell growth factor receptor Kit, sequence (P10721 whole entry): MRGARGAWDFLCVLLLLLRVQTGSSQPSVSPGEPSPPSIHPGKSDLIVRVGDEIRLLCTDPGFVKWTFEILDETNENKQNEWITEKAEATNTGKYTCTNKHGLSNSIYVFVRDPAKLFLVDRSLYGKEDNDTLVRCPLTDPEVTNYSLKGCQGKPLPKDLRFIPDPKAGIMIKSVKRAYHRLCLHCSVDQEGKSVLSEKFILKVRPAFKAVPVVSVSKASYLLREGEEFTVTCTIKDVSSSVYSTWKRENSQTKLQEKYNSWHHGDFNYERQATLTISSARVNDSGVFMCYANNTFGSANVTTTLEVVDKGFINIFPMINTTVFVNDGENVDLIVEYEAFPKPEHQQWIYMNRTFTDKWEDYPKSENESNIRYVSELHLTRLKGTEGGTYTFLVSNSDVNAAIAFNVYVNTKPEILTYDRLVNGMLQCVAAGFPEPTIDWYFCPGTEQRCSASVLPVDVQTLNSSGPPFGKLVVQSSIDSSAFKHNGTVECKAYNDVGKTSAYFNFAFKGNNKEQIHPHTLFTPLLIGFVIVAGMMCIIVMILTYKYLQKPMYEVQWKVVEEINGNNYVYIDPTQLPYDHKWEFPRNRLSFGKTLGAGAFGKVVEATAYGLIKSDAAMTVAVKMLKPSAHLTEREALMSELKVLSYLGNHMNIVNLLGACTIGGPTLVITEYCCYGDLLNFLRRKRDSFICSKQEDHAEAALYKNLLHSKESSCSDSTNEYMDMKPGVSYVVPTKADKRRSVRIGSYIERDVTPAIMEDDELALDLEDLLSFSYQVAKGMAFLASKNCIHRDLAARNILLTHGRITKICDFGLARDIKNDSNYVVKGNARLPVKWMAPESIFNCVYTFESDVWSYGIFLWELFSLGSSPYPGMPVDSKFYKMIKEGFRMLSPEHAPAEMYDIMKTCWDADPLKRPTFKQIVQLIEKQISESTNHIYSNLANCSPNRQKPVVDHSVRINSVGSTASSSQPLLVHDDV

SMILES: COc1cc(Nc2nc(C)cc(-c3cnn4nc(OC)ccc34)n2)cc(C(F)(F)F)c1
% of control [1]: 99%

SMILES: CN(C)C/C=C/C(=O)Nc1ccc(C(=O)N2CCCC(Nc3ncc(Cl)c(-c4c[nH]c5ccccc45)n3)C2)cc1 (stereo not given)
% of control [2]: 93%

% of inhibition [3]: 8.31%
SMILES: CC[C@@H]1[C@H](F)C(=O)N[C@@H]1COc1nccc2cc(C(N)=O)c(OC)cc12 [ZIMLOVISERTIB]

IC50 (CDK2/Cyclin A2): > 10 µM | IC50 [4]: > 10 µM
SMILES: Cn1cc(-n2cnc3c(NCc4nc5cc(Cl)c(Cl)cc5[nH]4)nc(N4CCOCC4)nc32)cn1

SMILES: COc1cc(N(C)c2ccnc3ccc(C(F)(F)F)cc23)cc(OC)c1OC
% binding [5]: 97%

% of control ([6]; at 1 µM): 80% | % of control ([6]; at 5 µM): 64%
SMILES: C=CC(=O)Nc1cccc(C(=O)Nc2ccc(Nc3cc(-c4[nH]c(SC)nc4C)ccn3)cc2)c1

SMILES: CNC(=O)Nc1ccc(-c2nc(N3CC4CCC(C3)O4)c3cnn(C4CCC5(CC4)OCCO5)c3n2)cc1
% of control [7]: 98%

SMILES: COc1cc(C(=O)N2CC[C@@H](O)[C@@H](N)C2)cc2nc(-c3cc4ccccc4n3CC3CC3)n(C)c12
pXC50 (Aurora kinase B): < 4.5 M
